Here are results for ten compounds from US11524966B1 (Valo Early Discovery, Inc., priority 2017, dated 2022).

Each structure is given as a SMILES string. Some results are limits rather than exact numbers.

For this assay, the target named is T1, USP25 (USP25-His6, Boston Biochem E-546) (Homo sapiens, UniProt Q9UHP3).
T1 construct: His6; purchased Boston Biochem E-546
T1 sequence (Q9UHP3 1-1055): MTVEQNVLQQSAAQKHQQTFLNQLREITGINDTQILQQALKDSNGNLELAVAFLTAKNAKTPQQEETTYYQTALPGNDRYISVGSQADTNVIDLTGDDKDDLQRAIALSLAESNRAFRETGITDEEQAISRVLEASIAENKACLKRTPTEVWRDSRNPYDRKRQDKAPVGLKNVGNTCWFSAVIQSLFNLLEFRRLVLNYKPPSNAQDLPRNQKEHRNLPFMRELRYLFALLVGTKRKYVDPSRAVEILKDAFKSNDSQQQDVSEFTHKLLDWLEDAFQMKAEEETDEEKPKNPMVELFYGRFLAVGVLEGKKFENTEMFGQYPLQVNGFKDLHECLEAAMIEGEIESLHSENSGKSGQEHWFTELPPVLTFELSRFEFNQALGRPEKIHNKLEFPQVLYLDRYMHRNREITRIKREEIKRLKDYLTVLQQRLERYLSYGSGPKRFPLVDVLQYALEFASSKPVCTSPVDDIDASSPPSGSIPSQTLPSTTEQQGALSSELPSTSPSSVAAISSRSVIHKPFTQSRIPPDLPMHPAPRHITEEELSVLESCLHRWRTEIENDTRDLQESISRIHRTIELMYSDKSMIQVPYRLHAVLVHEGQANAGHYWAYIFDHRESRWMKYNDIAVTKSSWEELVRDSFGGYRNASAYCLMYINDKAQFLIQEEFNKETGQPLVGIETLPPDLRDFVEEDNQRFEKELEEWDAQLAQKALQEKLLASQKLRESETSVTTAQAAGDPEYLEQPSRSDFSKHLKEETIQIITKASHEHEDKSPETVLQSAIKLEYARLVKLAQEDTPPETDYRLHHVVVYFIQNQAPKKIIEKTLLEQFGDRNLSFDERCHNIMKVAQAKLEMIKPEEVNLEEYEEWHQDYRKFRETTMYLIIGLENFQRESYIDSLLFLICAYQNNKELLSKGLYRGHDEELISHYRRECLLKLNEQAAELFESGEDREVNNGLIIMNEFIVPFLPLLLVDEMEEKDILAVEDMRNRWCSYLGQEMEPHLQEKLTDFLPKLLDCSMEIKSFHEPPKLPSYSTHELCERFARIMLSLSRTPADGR
The experiment in a line: Ubiquitin-Rhodamine 110 Assay for USP25 Activity, Example A-2. Type of assay: biochemical. The conditions noted are these: Ubiquitin-Rhodamine 110 assay, Example A-2; read-out: USP25 A-2 IC50 range. In short, it runs like this: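 Steps: compound dilutions (top 25 μM, 3-fold, 10 points) were preincubated 30 min with 75 pM USP25-His6; 25 nM Ub-Rh110 substrate was added under initial-velocity conditions; after 45 min at room temperature, 10 mM citric acid stopped the reaction before fluorescence reading.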

As to `Cc1ccc2c(N)c(C(=O)N[C@H]3CCc4nc(N5C[C@H]6NCCC(F)(F)[C@H]6C5)ccc4C3)sc2n1` [Example 329, N-[(6S)-2-[(4aS,7aS)-4,4-difluoro-octahydro-1H-pyrrolo[3,4-b]pyridin-6-yl]-5,6,7,8-tetrahydroquinolin-6-yl]-3-amino-6-methylthieno[2,3-b]pyridine-2-carboxamide], the concentration for half-maximal inhibition (IC50) lay within 200 to 2000 nM.

Consider `Cc1ccc2c(N)c(C(=O)N[C@H]3CCc4nc(N5C[C@@H]6NCCC(F)(F)[C@@H]6C5)ccc4C3)sc2n1` [Example 330, N-[(6S)-2-[(4aR,7aR)-4,4-difluoro-octahydro-1H-pyrrolo[3,4-b]pyridin-6-yl]-5,6,7,8-tetrahydroquinolin-6-yl]-3-amino-6-methylthieno[2,3-b]pyridine-2-carboxamide], for which the half-inhibitory concentration (IC50) was above 2000 nM.

On to `CN[C@H]1CN(c2ccc3c(n2)CC[C@H](NC(=O)c2sc4nc(C)ccc4c2N)C3)C[C@@]1(C)O` [Example 331, 3-amino-N-[(6S)-2-[(3R,4S)-3-hydroxy-3-methyl-4-(methylamino)pyrrolidin-1-yl]-5,6,7,8-tetrahydroquinolin-6-yl]-6-methylthieno[2,3-b]pyridine-2-carboxamide], for which the IC50 is above 2000 nM.

In the case of `CN[C@@H]1CN(c2ccc3c(n2)CC[C@H](NC(=O)c2sc4nc(C)ccc4c2N)C3)C[C@]1(C)O` [Example 332, 3-amino-N-[(6S)-2-[(3S,4R)-3-hydroxy-3-methyl-4-(methylamino)pyrrolidin-1-yl]-5,6,7,8-tetrahydroquinolin-6-yl]-6-methylthieno[2,3-b]pyridine-2-carboxamide], the IC50 is above 2000 nM.

Regarding `CO[C@H]1CN(c2ccc3c(c2)OC[C@H](NC(=O)c2sc4nc(C)ccc4c2N)C3)[C@@H](C)[C@@H]1N` [Example 333, 3-amino-N-[(3R)-7-[(2S,3S,4S)-3-amino-4-methoxy-2-methylpyrrolidin-1-yl]-3,4-dihydro-2H-1-benzopyran-3-yl]-6-methylthieno[2,3-b]pyridine-2-carboxamide], the IC50 fell in the range of 50 to 200 nM.

On to `CO[C@H]1[C@H](N)CN(c2ccc3c(c2)OC[C@H](NC(=O)c2sc4nc(C)ccc4c2N)C3)[C@H]1C` [Example 334, 3-amino-N-[(3R)-7-[(2S,3S,4R)-4-amino-3-methoxy-2-methylpyrrolidin-1-yl]-3,4-dihydro-2H-1-benzopyran-3-yl]-6-methylthieno[2,3-b]pyridine-2-carboxamide], for which the half-maximal inhibitory concentration (IC50) was in the range of 1 to 50 nM.

On to `CO[C@@H]1CN(c2ccc3c(c2)OC[C@H](NC(=O)c2sc4nc(C)ccc4c2N)C3)[C@H](C)[C@H]1N` [Example 335, 3-amino-N-[(3R)-7-[(2R,3R,4R)-3-amino-4-methoxy-2-methylpyrrolidin-1-yl]-3,4-dihydro-2H-1-benzopyran-3-yl]-6-methylthieno[2,3-b]pyridine-2-carboxamide], for which the IC50 fell in the range of 200 to 2000 nM.

As for `CO[C@H]1[C@@H](C)N(c2ccc3c(c2)OC[C@H](NC(=O)c2sc4nc(C)ccc4c2N)C3)C[C@@H]1N` [Example 336, 3-amino-N-[(3R)-7-[(2R,3R,4S)-4-amino-3-methoxy-2-methylpyrrolidin-1-yl]-3,4-dihydro-2H-1-benzopyran-3-yl]-6-methylthieno[2,3-b]pyridine-2-carboxamide], the IC50 is 200 to 2000 nM.

Regarding `Cc1ccc2c(N)c(C(=O)N[C@H]3COc4cc(N5CC6(C5)OCC[C@H]6N)ccc4C3)sc2n1` [Example 337, 3-amino-N-[(3R)-7-[(8R)-8-amino-5-oxa-2-azaspiro[3.4]octan-2-yl]-3,4-dihydro-2H-1-benzopyran-3-yl]-6-methylthieno[2,3-b]pyridine-2-carboxamide], the IC50 was 200 to 2000 nM.

`Cc1ccc2c(N)c(C(=O)N[C@H]3COc4cc(N5CC6(C5)OCC[C@@H]6N)ccc4C3)sc2n1` [Example 338, 3-amino-N-[(3R)-7-[(8S)-8-amino-5-oxa-2-azaspiro[3.4]octan-2-yl]-3,4-dihydro-2H-1-benzopyran-3-yl]-6-methylthieno[2,3-b]pyridine-2-carboxamide]: the IC50 lay in the range of 200 to 2000 nM.
